Measurements: ChEMBL document CHEMBL1201862, “PubChem BioAssay data set” (2004)
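The compound was tested at five concentrations on cells cultured in 96-well plates, with a 48-hour exposure period. At the GI50, growth is halved.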 The source made the active and inactive calls. No stated cut-off is given here; in the data, active = GI50 up to about 1.1 µM and inactive = higher. Where a SMILES comes first, the peptide text is derived from it. [ ]: non-standard residue; d: D form. Ac5c = NC1(C(=O)O)CCCC1

What was measured:
Experiment in all cases: growth of human tumour cells (NCI), 48 h
[1] = system: 786-0
[2] = system: A498
[3] = system: CAKI-1
[4] = system: EKVX
[5] = system: HCC 2998
[6] = system: HOP-62
[7] = system: HT-29
[8] = system: Malme-3M
[9] = system: NCI-H226
[10] = system: NCI-H23
[11] = system: OVCAR-3
[12] = system: OVCAR-4
[13] = system: SK-OV-3
[14] = system: SNB-19
[15] = system: U-251
[16] = system: UACC-62
[17] = system: LOX IMVI
[18] = system: MDA-MB-435
[19] = system: NCI/ADR-RES

SMILES	GI50 [1]	GI50 [2]	GI50 [3]	GI50 [4]	GI50 [5]	GI50 [6]	GI50 [7]	GI50 [8]	GI50 [9]	GI50 [10]	GI50 [11]	GI50 [12]	GI50 [13]	GI50 [14]	GI50 [15]	GI50 [16]	GI50 [17]	GI50 [18]	GI50 [19]
COC(=O)/C(=N/NC(C)(C)C)C(C(=O)C=C(C)C)C(=O)C(=O)Nc1ccc(Cl)cc1C (configuration not stated)	> 100 µM (inactive)	> 100 µM (inactive)	> 100 µM (inactive)	> 100 µM (inactive)	> 100 µM (inactive)	> 100 µM (inactive)	> 100 µM (inactive)	> 100 µM (inactive)	99.3 µM (inactive)	> 100 µM (inactive)	> 100 µM (inactive)	> 100 µM (inactive)	> 100 µM (inactive)	> 100 µM (inactive)	> 100 µM (inactive)	> 100 µM (inactive)			
Cc1ccnc(NC(NC(=O)c2ccccc2)(C(F)(F)F)C(F)(F)F)c1	> 100 µM (inactive)		> 100 µM (inactive)	> 100 µM (inactive)	> 100 µM (inactive)	> 100 µM (inactive)	> 100 µM (inactive)	> 100 µM (inactive)	> 100 µM (inactive)	> 100 µM (inactive)	> 100 µM (inactive)	> 100 µM (inactive)	> 100 µM (inactive)	> 100 µM (inactive)	> 100 µM (inactive)	> 100 µM (inactive)	> 100 µM (inactive)	> 100 µM (inactive)	> 100 µM (inactive)
CN(c1ccc(Cl)cc1)S(=O)(=O)c1ccccc1	> 100 µM (inactive)		51.3 µM (inactive)	37.6 µM (inactive)	84.1 µM (inactive)	71.9 µM (inactive)	42.3 µM (inactive)	> 100 µM (inactive)	30.4 µM (inactive)	30.8 µM (inactive)	64.3 µM (inactive)	77.1 µM (inactive)	78.5 µM (inactive)	97.7 µM (inactive)	42.9 µM (inactive)	48.4 µM (inactive)	42.8 µM (inactive)	41.3 µM (inactive)	36 µM (inactive)
COC1(CCO)CC=CCC1(CCO)OC (configuration not stated)	> 100 µM (inactive)		> 100 µM (inactive)	> 100 µM (inactive)		> 100 µM (inactive)	> 100 µM (inactive)	> 100 µM (inactive)	> 100 µM (inactive)		> 100 µM (inactive)	> 100 µM (inactive)	> 100 µM (inactive)	> 100 µM (inactive)		> 100 µM (inactive)	> 100 µM (inactive)		> 100 µM (inactive)
Cc1ccccc1N/N=C1\C(=O)Nc2ccccc21	> 100 µM (inactive)		> 100 µM (inactive)	> 100 µM (inactive)	> 100 µM (inactive)	> 100 µM (inactive)	> 100 µM (inactive)		41.7 µM (inactive)	> 100 µM (inactive)	> 100 µM (inactive)	> 100 µM (inactive)	> 100 µM (inactive)	> 100 µM (inactive)	> 100 µM (inactive)	> 100 µM (inactive)	> 100 µM (inactive)	> 100 µM (inactive)	> 100 µM (inactive)
O=[N+]([O-])c1cc(/N=N/c2c(O)ccc3cc(S(=O)(=O)O)ccc23)c(O)c([N+](=O)[O-])c1	> 100 µM (inactive)		> 100 µM (inactive)	> 100 µM (inactive)		> 100 µM (inactive)	50.2 µM (inactive)	> 100 µM (inactive)	47.9 µM (inactive)	> 100 µM (inactive)	63.1 µM (inactive)	> 100 µM (inactive)	> 100 µM (inactive)	> 100 µM (inactive)	> 100 µM (inactive)	> 100 µM (inactive)	49 µM (inactive)	> 100 µM (inactive)	> 100 µM (inactive)
O/N=N\c1nc(-c2ccccn2)nc2ccccc12	3.68 µM (inactive)	32.4 µM (inactive)	2.12 µM (inactive)	18.2 µM (inactive)	9.71 µM (inactive)	1.98 µM (inactive)	0.611 µM (active)	1.24 µM (inactive)	12.7 µM (inactive)	35.2 µM (inactive)	0.743 µM (active)	8.05 µM (inactive)	55.5 µM (inactive)	42.3 µM (inactive)	17.5 µM (inactive)	7.18 µM (inactive)			7.78 µM (inactive)
COc1c(Br)cc(/C=C(\C#N)c2cccnc2)cc1Br	> 100 µM (inactive)		> 100 µM (inactive)	4.31 µM (inactive)	48 µM (inactive)	54.8 µM (inactive)	26.4 µM (inactive)	> 100 µM (inactive)	33.7 µM (inactive)	32.7 µM (inactive)	99.1 µM (inactive)	81.5 µM (inactive)	56.9 µM (inactive)	> 100 µM (inactive)	36.3 µM (inactive)	> 100 µM (inactive)			34.9 µM (inactive)
COC(=O)C1(NC(=O)C(C)NC(=O)C(CCCCN)NC(=O)C(CC(C)C)NC(C)=O)CCCC1 (configuration not stated) (Ac-LKA[Ac5c]-OMe; configuration not given here)	> 100 µM (inactive)			> 100 µM (inactive)	> 100 µM (inactive)	> 100 µM (inactive)	> 100 µM (inactive)					> 10 µM (inactive)	> 100 µM (inactive)	> 100 µM (inactive)				> 100 µM (inactive)	
